Reference: patent publication US20260306460A1, “COMPOSITION FOR REMOVING AND INHIBITING SENESCENT CELLS, AND USES THEREOF” (LIFECEUTIX CO., LTD., priority 2023, published 2026)

Tests used:
[1] = test system: HMGN1 secreted from senescent human cells; assay: HMGN1 secretion (ELISA) from doxorubicin-induced senescent human cells, Example 11; format: cell-based; conditions: senescent untreated = 100%; 30 μM; 90 μM for LX-305, 1302, 1603, 2005, 2702, 2901, 3106; 270 μM for LX-1103, 2007
[2] = test system: HMGN1 secreted from senescent A549 cells; assay: HMGN1 secretion (ELISA) from senescent A549 cancer cells, Example 12; format: cell-based, human; conditions: senescent untreated = 100%; 30 μM; 90 μM for LX-305, 905, 1302, 1601, 1603, 2003, 2702, 2901, 3106; 270 μM for LX-1103, 2005, 2007;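 note: A549 cells made senescent by doxorubicin exposure, with DMSO-treated cells serving as the non-senescent control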
Experimental: (§2) Cells were treated with doxorubicin or control (DMSO) and cultured.

[3] = test system: senescent A549 cells; assay: Viability of senescent A549 cancer cells (CellTiter-Glo), Example 12; format: cell-based, human; conditions: 0 μM = 100
Experimental: as §2
Cancer cells in which aging was induced by treatment with doxorubicin were treated with the test compound at designated concentrations and measured using the CellTiter-Glo Luminescent Cell Viability Assay (Promega).

[4] = test system: senescent foreskin cells; assay: Survival of senescent human cells treated with supernatant (secreted fluid) from death-induced cells, Example 13; format: cell-based; conditions: Table 8; supernatant from dying senescent cells treated at 30, 90 or 270 μM (as Example 11); senescent treated cells
[5] = test system: naturally aged mice; assay: Anti-aging evaluation in naturally aged mice, Example 31, Table 55; format: in vivo, mouse; conditions: for Femur Ctsk mRNA / Kidney Agtr1a mRNA / Liver IL6 mRNA / Liver MMP3 mRNA / Liver p16 mRNA / Open Field Test Time in Center: untreated = 100%; for Heart Sur2a mRNA / Joint Col2a1 mRNA / Skin Col1a1 mRNA / Skin SDF1 mRNA: untreated = 1.0; for Muscle Mass: untreated 0.64 g; for Fat Mass: untreated 0.82 g; for Cataract incidence: untreated 83%;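 for all read-outs here: Vehicle-dosed control mice received solution alone at matching volume, values compare test-compound-treated aged mice against that control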
[6] = test system: bleomycin-induced pulmonary fibrosis mice; assay: Bleomycin-induced pulmonary fibrosis mice, Example 31, Table 56; format: in vivo, mouse; conditions: untreated = 100%
How it was run: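 After treatment with test compound or vehicle alone, lungs of bleomycin-induced pulmonary fibrosis mice were harvested. Total RNA extracted and gene expression quantified by qRT-PCR.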

[7] = test system: carbon tetrachloride-induced liver fibrosis mice; assay: Carbon tetrachloride-induced liver fibrosis mice, Example 31, Table 57; format: in vivo, mouse; conditions: CCl4-induced liver fibrosis mice, untreated = 100%
How it was run: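 Mice with induced hepatic fibrosis received either the test compound or, as controls, an equal volume of vehicle solution alone. Once dosing ended, liver tissue was harvested and total RNA was isolated. cDNA was synthesized from this RNA, and quantitative RT-PCR was run on it to measure hepatic mRNA levels of the fibrosis- and senescence-related genes.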

[8] = test system: senescent human cells; assay: Viability of doxorubicin-induced senescent human cells (CellTiter-Glo), Example 11; format: cell-based; conditions: 0 μM = 100
Experimental: Cells in which senescence was induced by treatment with doxorubicin were treated with the test compound at designated concentrations and measured using the CellTiter-Glo Luminescent Cell Viability Assay (Promega).
After 3 days, cell viability was measured using CellTiter-Glo Luminescent Cell Viability Assay (Promega) or light microscopy.

[9] = test system: naturally aged mice; assay: p16, MMP3, IL6 mRNA in liver of naturally aged mice (qRT-PCR), Example 15; format: in vivo, mouse; conditions: untreated aged = 100%, 5 days
Experimental: (§1) In the same manner as in Example 7-1 of WO2023-085787 A1, naturally aged mice were administered LX-405 (5% DMSO in PBS solution, 10 mg/kg, intraperitoneal administration), LX-801 (PBS, 100 mg/kg, intraperitoneal administration), LX-1102 (0.5% CMC-Na solution, 100 mg/kg, oral administration), LX-1801 (PBS, 50 mg/kg, intraperitoneal administration), LX-2101 (0.5% CMC-Na solution, 10 mg/kg, intraperitoneal administration), and LX-3403 (mouse anti-PD-1 antibody (BioXcell), 100 μg, intraperitoneal administration) for 5 days under the following conditions. The control group was administered only the solution in the same volume. After drug administration was completed, the method described in each Example below was performed. The mouse was sacrificed in the same manner as Example 7-2 and 7-6 of WO2023-085787 A1. Total RNA was extracted from liver tissue, and qRT-PCR was performed and analyzed using synthesized cDNA. […] The mRNA amounts of p16, MMP3, and IL6 after natural aging were induced were calculated as 100% and compared them with the mRNA amounts of p16, MMP3, and IL6 after treatment with the test compound. Furthermore, an open field test was performed to analyze aging-related frailty in mice using the same method as Example 7-7 of WO2023-085787 A1. […] The amount of activity evaluated after inducing aging was calculated as 100% and compared it with the amount of activity evaluated after treatment with the test compound.

[10] = test system: naturally aged mice; assay: Open field test in naturally aged mice, Example 15; format: in vivo, mouse; conditions: untreated aged = 100%; 5 days; doses as p16 mRNA
Experimental: as §1

| SMILES | HMGN1 [1] | HMGN1 [2] | Survival [4] | Femur Ctsk mRNA [5] | Heart Sur2a mRNA [5] | Joint Col2a1 mRNA [5] | Kidney Agtr1a mRNA [5] | Liver IL6 mRNA [5] | Liver MMP3 mRNA [5] | Liver p16 mRNA [5] | Open Field Test Time in Center [5] | Skin Col1a1 mRNA [5] | Skin SDF1 mRNA [5] | Muscle Mass [5] | Fat Mass [5] | Cataract incidence [5] | Lung p16 mRNA [6] | Col1a1 mRNA [6] | Liver p16 mRNA [7] | Col1a1 mRNA [7] | further results |
| --- | --- | --- | --- | --- | --- | --- | --- | --- | --- | --- | --- | --- | --- | --- | --- | --- | --- | --- | --- | --- | --- |
| CN(Cc1cnc2nc(N)nc(N)c2n1)c1ccc(C(=O)N[C@@H](CCC(=O)O)C(=O)O)cc1 [LX-2901, Methotrexate] | 167% | 189% | 97.5 | 51% | 1.7 fold | 4.0 fold | 67% | 55% | 72% | 64% | 167% | 1.7 Fold | 1.8 fold | 0.69 g | 0.90 g | 59% | 72 (±5.7) % | 61 (±4.3) % | 59 (±1.3) % | 73 (±3.6) % | Survival ([3]; 1.1 μM): 89%; Survival ([3]; 10 μM): 90.4%; Survival ([3]; 30 μM): 92.3%; Survival ([3]; 90 μM): 37.2%; Survival ([3]; […]): 87.8%; Survival ([8]; 1.1 μM): 103.3%; Survival ([8]; 10 μM): 104.8%; Survival ([8]; 30 μM): 93.6%; Survival ([8]; 90 μM): 49.9%; Survival ([8]; […]): 97.8% |
| C[N+](C)(C)CCO.C[N+](C)(C)CCO.[SH-].[SH-].[S]=[Mo]=[S] [LX-2601] | 263% | 193% | 67.3 | 60% | 2.7 fold | 2.3 fold | 73% | 75% | 77% | 73% | 166% | 2.3 Fold | 1.9 fold | 0.71 g | 0.88 g | 80% | 81 (±5.2) % | 67 (±3.0) % | 75 (±3.2) % | 63 (±2.6) % | Survival ([3]; 1.1 μM): 98.6%; Survival ([3]; 10 μM): 59.7%; Survival ([3]; 30 μM): 50.7%; Survival ([3]; […]): 86%; Survival ([8]; 1.1 μM): 95.2%; Survival ([8]; 10 μM): 58.6%; Survival ([8]; 30 μM): 21.8%; Survival ([8]; […]): 81.8% |
| CCOC(=O)[C@@H](N)CCC(=O)N[C@@H](CSCc1ccccc1)C(=O)N[C@@H](C(=O)OCC)c1ccccc1 [LX-2602, Ezatiostat] | 208% | 283% | 69.5 | 59% | 1.7 fold | 2.2 fold | 61% | 80% | 64% | 71% | 158% | 2.5 Fold | 2.0 fold | 0.69 g | 0.84 g | 81% | 68 (±3.5) % | 58 (±2.9) % | 77 (±3.9) % | 82 (±3.7) % | Survival ([3]; 1.1 μM): 102.7%; Survival ([3]; 10 μM): 96%; Survival ([3]; 30 μM): 32.5%; Survival ([3]; […]): 107.4%; Survival ([8]; 1.1 μM): 97.3%; Survival ([8]; 10 μM): 76.9%; Survival ([8]; 30 μM): 47.6%; Survival ([8]; […]): 92.5% |
| Fc1ccc(-n2cc(CCCCN3CCC4(CC3)OCc3ccccc34)c3ccccc32)cc1 [LX-1102, Siramesine] |  | 324% | 52.9 | 62% | 1.8 fold | 1.7 fold | 80% | 74% | 71% | 58% | 148% | 2.5 Fold | 2.3 fold | 0.65 g | 0.95 g | 77% | 59 (±3.9) % | 68 (±4.1) % | 76 (±2.8) % | 64 (±4.7) % | p16 mRNA ([9]; LX-405 10 mg/kg ip, LX-801 100 mg/kg ip, LX-1102 100 mg/kg po, LX-1801 50 mg/kg ip, LX-2101 10 mg/kg ip, LX-3403 100 μg ip): 75.2 (±5.5) %; IL6 mRNA ([9]; doses as p16 mRNA): 84.5 (±8.9) %; MMP3 mRNA ([9]; doses as p16 mRNA): 89.7 (±12.5) %; Open Field Test Time in Center [10]: 163 (±7.9) % |
| Cc1nc(-c2nc(-c3ccc(OC(F)(F)F)cc3)no2)nn1Cc1cccc(N2CCC(S(C)(=O)=O)CC2)c1 [LX-3200] | 234% | 305% | 54.9 | 68% | 1.4 fold | 1.3 fold | 62% | 67% | 71% | 77% | 188% | 1.4 Fold | 1.6 fold | 0.69 g | 1.03 g | 72% | 76 (±5.7) % | 63 (±6.9) % | 75 (±9.8) % | 80 (±9.6) % | Survival ([3]; 1.1 μM): 94.9%; Survival ([3]; 10 μM): 61.6%; Survival ([3]; 30 μM): 1.6%; Survival ([3]; […]): 91.7%; Survival ([8]; 1.1 μM): 92.2%; Survival ([8]; 10 μM): 14.3%; Survival ([8]; […]): 78.6% |
